# Assay results taken from ChEMBL document CHEMBL1681690, “Discovery of TAK-733, a potent and selective MEK allosteric site inhibitor for the treatment of cancer” (Bioorg Med Chem Lett, 2011).
# The source made the active and inactive calls. No cut-off for these calls is given here.
# Assays:
# [1] = Half life in human liver microsomes; format: ADME, Microsome
# [2] = system: COLO 205; assay: Cytotoxicity against human COLO205 cells after 72 hrs by MTS assay; details: COLO 205, 72 h
# [3] = Half life in rat liver microsomes; format: ADME, Microsome
# [4] = system: A-375; assay: Cytotoxicity against human A375 cells after 72 hrs by MTS assay; details: A-375, 72 h
# [5] = target: Dual specificity mitogen-activated protein kinase kinase 1 (Homo sapiens, UniProt Q02750)
# Dual specificity mitogen-activated protein kinase kinase 1, sequence (Q02750 whole entry): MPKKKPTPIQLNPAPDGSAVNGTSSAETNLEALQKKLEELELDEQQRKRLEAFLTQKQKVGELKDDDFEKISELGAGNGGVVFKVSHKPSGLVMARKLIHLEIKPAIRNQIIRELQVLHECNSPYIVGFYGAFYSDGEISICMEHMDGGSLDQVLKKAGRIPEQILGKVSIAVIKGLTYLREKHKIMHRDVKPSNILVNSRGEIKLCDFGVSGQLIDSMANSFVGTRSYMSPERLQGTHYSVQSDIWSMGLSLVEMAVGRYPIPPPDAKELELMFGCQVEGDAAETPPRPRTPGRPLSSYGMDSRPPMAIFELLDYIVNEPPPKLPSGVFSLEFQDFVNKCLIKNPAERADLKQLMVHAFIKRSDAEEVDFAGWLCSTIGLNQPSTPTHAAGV
# Description: Inhibition of MEK1 by IMAP assay
# [6] = Volume of distribution at steady state in monkey at 0.5 mg/kg, iv and 2 mg/kg, po; format: ADME, organism-based, Macaca mulatta; details: rhesus monkey, in vivo, read-out: Vdss
# [7] = target: [Pyruvate dehydrogenase (acetyl-transferring)] kinase isozyme 1, mitochondrial (Homo sapiens) (UniProt Q15118); assay: Inhibition of PDK1 up to 10 uM
# [8] = target: Angiopoietin-1 receptor (Homo sapiens) (UniProt Q02763); assay: Inhibition of Tie2 up to 10 uM
# [9] = target: Tyrosine-protein kinase SYK (Homo sapiens) (UniProt P43405); assay: Inhibition of Syk up to 10 uM
# [10] = Volume of distribution at steady state in rat at 1 mg/kg, iv and 4.2 mg/kg, po; format: ADME, organism-based; details: in vivo, read-out: Vdss
# [11] = Mean residence time in mouse at […], po; format: ADME, organism-based; set-up: dose 7.8 mg/kg, route oral; details: in vivo
# [12] = Clearance in monkey at 0.5 mg/kg, iv and 2 mg/kg, po; format: ADME, organism-based, Macaca mulatta; details: rhesus monkey, in vivo
# [13] = target: Glycogen synthase kinase-3 beta (Homo sapiens) (UniProt P49841); assay: Inhibition of GSK3-beta up to 10 uM
# [14] = target: Hepatocyte growth factor receptor (Homo sapiens) (UniProt P08581); assay: Inhibition of c-Met up to 10 uM
# Hepatocyte growth factor receptor (Homo sapiens), sequence (P08581 whole entry): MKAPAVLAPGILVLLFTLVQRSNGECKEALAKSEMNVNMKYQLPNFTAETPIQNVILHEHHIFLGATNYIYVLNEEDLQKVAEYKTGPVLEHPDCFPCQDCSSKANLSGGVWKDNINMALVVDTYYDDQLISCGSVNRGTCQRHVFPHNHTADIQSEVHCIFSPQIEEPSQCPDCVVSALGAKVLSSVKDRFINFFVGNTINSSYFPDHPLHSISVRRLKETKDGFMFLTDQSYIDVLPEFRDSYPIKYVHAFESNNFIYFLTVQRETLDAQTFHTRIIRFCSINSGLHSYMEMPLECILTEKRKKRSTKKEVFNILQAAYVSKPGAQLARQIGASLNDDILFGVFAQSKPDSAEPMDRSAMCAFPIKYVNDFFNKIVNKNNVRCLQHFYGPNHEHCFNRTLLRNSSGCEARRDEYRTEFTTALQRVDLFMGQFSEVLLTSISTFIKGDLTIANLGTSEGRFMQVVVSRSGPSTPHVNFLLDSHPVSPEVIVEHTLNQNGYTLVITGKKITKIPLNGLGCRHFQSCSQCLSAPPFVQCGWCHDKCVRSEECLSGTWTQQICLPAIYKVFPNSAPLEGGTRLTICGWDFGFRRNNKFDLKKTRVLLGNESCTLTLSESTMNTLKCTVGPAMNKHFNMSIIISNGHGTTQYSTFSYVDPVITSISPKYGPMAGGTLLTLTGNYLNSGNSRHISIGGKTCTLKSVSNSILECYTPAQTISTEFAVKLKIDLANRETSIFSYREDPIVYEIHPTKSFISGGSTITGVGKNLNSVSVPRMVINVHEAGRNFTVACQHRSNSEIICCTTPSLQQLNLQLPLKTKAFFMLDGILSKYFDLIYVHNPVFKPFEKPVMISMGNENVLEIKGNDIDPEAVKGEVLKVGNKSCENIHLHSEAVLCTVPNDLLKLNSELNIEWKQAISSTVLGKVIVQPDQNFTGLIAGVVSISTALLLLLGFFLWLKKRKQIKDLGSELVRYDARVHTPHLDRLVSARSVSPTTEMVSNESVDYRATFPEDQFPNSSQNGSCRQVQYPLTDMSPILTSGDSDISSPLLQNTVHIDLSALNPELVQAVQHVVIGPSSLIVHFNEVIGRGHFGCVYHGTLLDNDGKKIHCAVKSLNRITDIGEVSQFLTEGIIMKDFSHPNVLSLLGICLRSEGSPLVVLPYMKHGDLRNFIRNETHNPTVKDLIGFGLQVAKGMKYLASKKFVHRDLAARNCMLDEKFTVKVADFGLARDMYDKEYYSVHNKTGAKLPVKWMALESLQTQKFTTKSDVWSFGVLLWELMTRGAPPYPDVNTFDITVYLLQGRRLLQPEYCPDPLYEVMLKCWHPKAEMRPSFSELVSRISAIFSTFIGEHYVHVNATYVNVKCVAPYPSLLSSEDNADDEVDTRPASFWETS
# [15] = Clearance in dog at 0.6 mg/kg, iv and 2.3 mg/kg, po; format: ADME, organism-based, Canis lupus familiaris; details: in vivo
# [16] = Oral bioavailability in mouse at […]; format: ADME, organism-based; details: in vivo
# [17] = target: Platelet-derived growth factor receptor beta (Homo sapiens) (UniProt P09619); assay: Inhibition of PDGFRbeta up to 10 uM
# [18] = target: Epidermal growth factor receptor (Homo sapiens) (UniProt P00533); assay: Inhibition of EGFR up to 10 uM
# [19] = Mean residence time in rat at 4.2 mg/kg, po; format: ADME, organism-based; set-up: dose 4.2 mg/kg, route oral; details: in vivo
# [20] = Plasma protein binding in human; format: ADME, cell-free; details: read-out: PPB (converted)
# [21] = target: Tyrosine-protein kinase ABL1 (Homo sapiens) (UniProt P00519); assay: Inhibition of Abl1 up to 10 uM
# [22] = target: Serine/threonine-protein kinase PLK3 (Homo sapiens) (UniProt Q9H4B4); assay: Inhibition of PLK3 up to 10 uM
# [23] = Oral bioavailability in monkey at 2 mg/kg; format: ADME, organism-based, Macaca mulatta; details: rhesus monkey, in vivo
# [24] = Mean residence time in dog at 0.6 mg/kg, iv; format: ADME, organism-based, Canis lupus familiaris; set-up: dose 0.6 mg/kg, route intravenous; details: in vivo
# [25] = Volume of distribution at steady state in dog at 0.6 mg/kg, iv and 2.3 mg/kg, po; format: ADME, organism-based, Canis lupus familiaris; details: in vivo, read-out: Vdss
# [26] = Volume of distribution at steady state in mouse at 1.4 mg/kg, iv and […], po; format: ADME, organism-based; details: in vivo, read-out: Vdss
# [27] = Mean residence time in dog at 2.3 mg/kg, po; format: ADME, organism-based, Canis lupus familiaris; set-up: dose 2.3 mg/kg, route oral; details: in vivo
# [28] = target: Mitogen-activated protein kinase 14 (Homo sapiens) (UniProt Q16539); assay: Inhibition of p38alpha up to 10 uM
# Mitogen-activated protein kinase 14 (Homo sapiens), sequence (Q16539 whole entry): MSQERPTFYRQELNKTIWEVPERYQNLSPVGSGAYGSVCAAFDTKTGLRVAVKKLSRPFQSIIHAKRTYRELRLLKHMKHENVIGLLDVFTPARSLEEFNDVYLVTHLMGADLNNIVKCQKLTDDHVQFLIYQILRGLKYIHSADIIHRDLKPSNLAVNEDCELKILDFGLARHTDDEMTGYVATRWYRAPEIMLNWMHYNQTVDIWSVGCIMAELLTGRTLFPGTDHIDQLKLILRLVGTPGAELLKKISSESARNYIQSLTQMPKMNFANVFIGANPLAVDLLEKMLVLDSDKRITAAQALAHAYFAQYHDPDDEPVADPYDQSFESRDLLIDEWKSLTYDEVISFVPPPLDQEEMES
# [29] = target: Cyclin-dependent kinase 2/cyclin A (Homo sapiens) (UniProt P24941+P20248+P78396); assay: Inhibition of CDK2/cyclin A up to 10 uM; format: protein-complex assay
# [30] = Oral bioavailability in dog at 2.3 mg/kg; format: ADME, organism-based, Canis lupus familiaris; details: in vivo
# [31] = Oral bioavailability in rat at 4.2 mg/kg; format: ADME, organism-based; details: in vivo
# [32] = Inhibition of CYP450 up to 30 uM; format: ADME
# [33] = target: Protein kinase C alpha type (Homo sapiens) (UniProt P17252); assay: Inhibition of PKCalpha up to 10 uM
# [34] = Mean residence time in rat at 1 mg/kg, iv; format: ADME, organism-based; set-up: dose 1 mg/kg, route intravenous; details: in vivo
# [35] = target: Tyrosine-protein kinase JAK3 (Homo sapiens) (UniProt P52333); assay: Inhibition of JAK3 up to 10 uM
# Tyrosine-protein kinase JAK3 (Homo sapiens), sequence (P52333 whole entry): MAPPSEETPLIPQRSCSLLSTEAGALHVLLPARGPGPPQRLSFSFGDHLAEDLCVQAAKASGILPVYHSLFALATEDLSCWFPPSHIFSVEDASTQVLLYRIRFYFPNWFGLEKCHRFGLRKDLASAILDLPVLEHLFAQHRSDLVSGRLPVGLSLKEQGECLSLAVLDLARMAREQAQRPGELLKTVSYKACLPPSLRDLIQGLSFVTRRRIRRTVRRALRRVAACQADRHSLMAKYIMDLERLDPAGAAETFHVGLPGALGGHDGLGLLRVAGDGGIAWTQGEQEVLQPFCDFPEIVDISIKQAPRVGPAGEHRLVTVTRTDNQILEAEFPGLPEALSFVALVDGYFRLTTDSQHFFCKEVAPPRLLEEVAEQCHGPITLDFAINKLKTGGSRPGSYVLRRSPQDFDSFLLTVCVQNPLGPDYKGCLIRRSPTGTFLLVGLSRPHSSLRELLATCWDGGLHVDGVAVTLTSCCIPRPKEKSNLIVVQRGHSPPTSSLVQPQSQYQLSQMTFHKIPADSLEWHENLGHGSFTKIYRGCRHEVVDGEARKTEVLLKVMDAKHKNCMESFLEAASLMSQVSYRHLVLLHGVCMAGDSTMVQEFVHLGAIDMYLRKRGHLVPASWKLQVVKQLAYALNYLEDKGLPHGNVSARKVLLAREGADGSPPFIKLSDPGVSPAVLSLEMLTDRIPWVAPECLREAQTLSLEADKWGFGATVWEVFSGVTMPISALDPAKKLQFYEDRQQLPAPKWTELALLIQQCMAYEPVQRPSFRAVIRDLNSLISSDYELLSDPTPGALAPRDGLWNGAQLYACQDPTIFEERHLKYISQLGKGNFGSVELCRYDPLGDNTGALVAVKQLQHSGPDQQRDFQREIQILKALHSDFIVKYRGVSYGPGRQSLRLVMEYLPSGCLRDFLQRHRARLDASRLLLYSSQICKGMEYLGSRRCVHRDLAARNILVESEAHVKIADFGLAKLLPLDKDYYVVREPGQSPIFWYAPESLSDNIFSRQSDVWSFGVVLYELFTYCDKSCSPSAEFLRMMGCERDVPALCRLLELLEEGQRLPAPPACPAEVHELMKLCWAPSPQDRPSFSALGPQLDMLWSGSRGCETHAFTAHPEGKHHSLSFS
# [36] = Clearance in mouse at 1.4 mg/kg, iv and […] mg/kg, po; format: ADME, organism-based; details: in vivo
# [37] = target: Calcium/calmodulin-dependent protein kinase type 1D (Homo sapiens) (UniProt Q8IU85); assay: Inhibition of CamK1delta up to 10 uM
# Calcium/calmodulin-dependent protein kinase type 1D (Homo sapiens), sequence (Q8IU85 whole entry, looked up): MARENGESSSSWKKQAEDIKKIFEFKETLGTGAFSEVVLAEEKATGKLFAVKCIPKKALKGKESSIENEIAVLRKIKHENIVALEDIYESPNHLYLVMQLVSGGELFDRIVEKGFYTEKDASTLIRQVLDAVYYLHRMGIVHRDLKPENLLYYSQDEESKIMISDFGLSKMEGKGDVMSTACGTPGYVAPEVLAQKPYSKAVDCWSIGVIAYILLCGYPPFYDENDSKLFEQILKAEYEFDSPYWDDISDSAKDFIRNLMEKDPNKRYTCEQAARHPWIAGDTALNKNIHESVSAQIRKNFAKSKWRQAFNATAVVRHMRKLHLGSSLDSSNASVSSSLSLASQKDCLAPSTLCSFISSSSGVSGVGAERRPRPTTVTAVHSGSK
# [38] = target: Insulin receptor (Homo sapiens) (UniProt P06213); assay: Inhibition of IR up to 10 uM
# [39] = target: RAF proto-oncogene serine/threonine-protein kinase (Homo sapiens) (UniProt P04049); assay: Inhibition of c-RAF up to 10 uM
# RAF proto-oncogene serine/threonine-protein kinase (Homo sapiens), sequence (P04049 whole entry): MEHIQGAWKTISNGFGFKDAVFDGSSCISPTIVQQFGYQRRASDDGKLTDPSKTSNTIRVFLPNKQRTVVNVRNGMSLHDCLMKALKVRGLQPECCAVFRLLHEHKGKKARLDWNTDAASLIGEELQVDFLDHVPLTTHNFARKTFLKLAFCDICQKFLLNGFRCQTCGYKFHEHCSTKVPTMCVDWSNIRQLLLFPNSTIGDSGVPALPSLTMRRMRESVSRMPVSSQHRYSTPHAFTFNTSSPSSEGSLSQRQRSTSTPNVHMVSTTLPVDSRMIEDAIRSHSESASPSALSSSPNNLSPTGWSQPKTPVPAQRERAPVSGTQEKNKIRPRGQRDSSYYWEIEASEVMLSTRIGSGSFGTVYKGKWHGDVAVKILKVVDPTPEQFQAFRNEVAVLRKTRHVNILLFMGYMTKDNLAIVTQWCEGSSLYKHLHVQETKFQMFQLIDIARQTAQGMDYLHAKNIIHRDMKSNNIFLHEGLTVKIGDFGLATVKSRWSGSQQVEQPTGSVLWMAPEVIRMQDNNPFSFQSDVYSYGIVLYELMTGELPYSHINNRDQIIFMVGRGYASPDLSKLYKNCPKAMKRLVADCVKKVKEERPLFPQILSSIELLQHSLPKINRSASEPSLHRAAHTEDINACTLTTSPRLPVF
# [40] = Plasma protein binding in mouse; format: ADME, cell-free; details: read-out: PPB (converted)
# [41] = target: RAC-gamma serine/threonine-protein kinase (Homo sapiens) (UniProt Q9Y243); assay: Inhibition of AKT3 up to 10 uM
# [42] = Clearance in rat at 1 mg/kg, iv and 4.2 mg/kg, po; format: ADME, organism-based; details: in vivo
# [43] = Mean residence time in monkey at 2 mg/kg, po; format: ADME, organism-based, Macaca mulatta; set-up: dose 2 mg/kg, route oral; details: rhesus monkey, in vivo
# [44] = Mean residence time in monkey at 0.5 mg/kg, iv; format: ADME, organism-based, Macaca mulatta; set-up: dose 0.5 mg/kg, route intravenous; details: rhesus monkey, in vivo
# [45] = Mean residence time in mouse at 1.4 mg/kg, iv; format: ADME, organism-based; set-up: dose 1.4 mg/kg, route intravenous; details: in vivo
# [46] = target: Proto-oncogene tyrosine-protein kinase Src (Homo sapiens) (UniProt P12931); assay: Inhibition of c-SRC up to 10 uM
smiles,measurement,setting,value
Cn1c(=O)c(F)c(Nc2ccc(I)cc2F)c2c(=O)n(OC[C@H](O)CO)cnc21,half-life,[1],0.583 h
same,EC50,[2],1 nM
same,half-life,[3],0.467 h
same,EC50,[4],3 nM
same,IC50,[5],3.1 nM
Cc1c(Nc2ccc(I)cc2F)c2c(=O)n(C[C@@H](O)CO)cnc2n(C)c1=O,half-life,[1],1.95 h
same,EC50,[2],7.9 nM
same,half-life,[3],1.97 h
same,EC50,[4],7.4 nM
Cn1c(=O)c(F)c(Nc2ccc(I)cc2F)c2c(=O)n(C[C@H](O)CO)cnc21,half-life,[1],3.05 h
same,EC50,[2],2.6 nM
same,half-life,[3],1.52 h
same,EC50,[4],3 nM
same,IC50,[5],3.2 nM
Cc1c(Nc2ccc(I)cc2F)c2c(=O)n(C[C@H](O)CO)cnc2n(C)c1=O,half-life,[1],> 3.33 h
same,EC50,[2],13 nM
same,half-life,[3],> 3.33 h
same,EC50,[4],8 nM
Cn1c(=O)cc(Nc2ccc(I)cc2F)c2c(=O)n(C[C@@H](O)CCO)cnc21,half-life,[1],> 3.33 h
same,EC50,[2],142 nM
same,half-life,[3],0.667 h
same,EC50,[4],479 nM
Cn1c(=O)c(F)c(Nc2ccc(Br)cc2F)c2c(=O)n(C[C@@H](O)CO)cnc21,half-life,[1],3.13 h
same,EC50,[2],38 nM
same,half-life,[3],0.817 h
same,EC50,[4],50 nM
Cn1c(=O)cc(Nc2ccc(I)cc2F)c2c(=O)n(CCO)cnc21,half-life,[1],0.617 h
same,EC50,[2],38 nM
same,half-life,[3],0.183 h
same,EC50,[4],60 nM
Cn1c(=O)c(F)c(Nc2ccc(I)cc2F)c2c(=O)n(C[C@@H](O)CO)cnc21 [TAK-733],Vd,[6],3.75 L/kg
same,inhibition,[7],inactive
same,inhibition,[8],inactive
same,inhibition,[9],inactive
same,Vd,[10],1.64 L/kg
same,MRT,[11],4.6 h
same,clearance,[12],11.1 mL/min/kg
same,inhibition,[13],inactive
same,inhibition,[14],inactive
same,clearance,[15],5.9 mL/min/kg
same,bioavailability,[16],67%
same,inhibition,[17],inactive
same,inhibition,[18],inactive
same,MRT,[19],11.5 h
same,fraction unbound,[20],0.03
same,inhibition,[21],inactive
same,inhibition,[22],inactive
same,bioavailability,[23],> 38%
same,MRT,[24],8.9 h
same,half-life,[1],2.38 h
same,EC50,[2],2.1 nM
same,Vd,[25],3.07 L/kg
same,half-life,[3],2.25 h
same,Vd,[26],1.96 L/kg
same,MRT,[27],12.9 h
same,inhibition,[28],inactive
same,inhibition,[29],inactive
same,bioavailability,[30],76%
same,bioavailability,[31],71%
same,inhibition (INH),[32],Not Active
same,inhibition,[33],inactive
same,MRT,[34],2 h
same,inhibition,[35],inactive
same,clearance,[36],17.2 mL/min/kg
same,inhibition,[37],inactive
same,inhibition,[38],inactive
same,inhibition,[39],inactive
same,fraction unbound,[40],0.04
same,inhibition,[41],inactive
same,clearance,[42],13.7 mL/min/kg
same,MRT,[43],23.8 h
same,MRT,[44],5.8 h
same,EC50,[4],3.1 nM
same,MRT,[45],1.9 h
same,IC50,[5],3.2 nM
same,inhibition,[46],inactive
Cn1c(=O)cc(Nc2ccc(I)cc2F)c2c(=O)n(C[C@@H](O)CO)cnc21,half-life,[1],0.8 h
same,EC50,[2],27 nM
same,half-life,[3],0.417 h
same,EC50,[4],26 nM
Cn1c(=O)cc(Nc2ccc(I)cc2F)c2c(=O)n(CCCO)cnc21,half-life,[1],> 3.33 h
same,EC50,[2],16 nM
same,half-life,[3],0.333 h
same,EC50,[4],23 nM
same,IC50,[5],4.9 nM
Cn1c(=O)c(Cl)c(Nc2ccc(I)cc2F)c2c(=O)n(C[C@@H](O)CO)cnc21,half-life,[1],0.367 h
same,EC50,[2],10 nM
same,half-life,[3],> 3.33 h
same,EC50,[4],25 nM
same,IC50,[5],5.9 nM
CN(C)CCn1cnc2c(c(Nc3ccc(I)cc3F)cc(=O)n2C)c1=O,half-life,[1],0.483 h
same,half-life,[3],0.133 h
same,IC50,[5],740 nM
Cn1c(=O)c(F)c(Nc2ccc(I)cc2F)c2c(=O)n(CCO)cnc21,half-life,[1],0.85 h
same,EC50,[2],3.7 nM
same,half-life,[3],0.483 h
same,EC50,[4],6.3 nM
Cn1c(=O)c(F)c(Nc2ccc(I)cc2F)c2c(=O)n(C(CO)CO)cnc21,half-life,[1],0.517 h
same,EC50,[2],3.5 nM
same,half-life,[3],0.8 h
same,EC50,[4],8 nM
same,IC50,[5],3.3 nM
Cn1c(=O)cc(Nc2ccc(I)cc2F)c2c(=O)n(C[C@H](O)CO)cnc21,half-life,[1],> 3.33 h
same,EC50,[2],38 nM
same,half-life,[3],> 3.33 h
same,EC50,[4],40 nM
C#Cc1ccc(Nc2c(F)c(=O)n(C)c3ncn(C[C@@H](O)CO)c(=O)c23)c(F)c1,half-life,[1],0.817 h
same,EC50,[2],10 nM
same,half-life,[3],0.55 h
same,EC50,[4],11 nM
same,IC50,[5],4.8 nM
Cc1c(Nc2ccc(I)cc2F)c2c(=O)n(CCO)cnc2n(C)c1=O,half-life,[1],> 3.33 h
same,EC50,[2],9 nM
same,half-life,[3],> 3.33 h
same,EC50,[4],18 nM
same,IC50,[5],4 nM
Cn1cnc2c(c(Nc3ccc(I)cc3F)cc(=O)n2C)c1=O,half-life,[1],> 3.33 h
same,EC50,[2],49 nM
same,half-life,[3],0.217 h
same,EC50,[4],86 nM
